Results reported in patent publication US20170121322A1, “BET-PROTEIN INHIBITING 3,4-DIHYDROPYRIDO[2,3-B]PYRAZINONES WITH META-SUBSTITUTED AROMATIC AMINO- OR ETHER GROUPS” (Bayer Pharma Aktiengesellschaft, priority 2014, published 2017).

Experiments:
[1] = target: T1, BRD4 bromo domain 2 [BRD4(2)] (Homo sapiens, UniProt O60885); assay: BRD4(2)/acetylated peptide H4 TR-FRET binding assay; settings: His6-BRD4(2) (aa 357-445) vs acetylated histone H4 peptide
T1 construct: N-terminally His6-tagged BRD4(2) (amino acids 357-445); made in house; host or cells: E. coli
From the text: To assess the BRD4(2) binding strength of the substances described in this application, the ability thereof to inhibit the interaction between BRD4(2) and acetylated histone H4 in a dose-dependent manner was quantified.
For this purpose, a time-resolved fluorescence resonance energy transfer (TR-FRET) assay was used, which measures the binding between N-terminally His6-tagged BRD4(2) (amino acids 357-445) and a synthetic acetylated histone H4 (Ac-H4) peptide with sequence SGRGK(Ac)GGK(Ac)GLGK(Ac)GGAK(Ac)RHRKVLRDNGSGSK-biotin. The recombinant BRD4(2) protein produced in-house according to Filippakopoulos et al., Cell, 2012, 149:214-231 was expressed in E. coli and purified by means of (Ni-NTA) affinity and (Sephadex G-75) size exclusion chromatography. The Ac-H4 peptide can be purchased, for example, from Biosyntan (Berlin, Germany).
In the assay, typically 11 different concentrations of each substance (0.1 nM, 0.33 nM, 1.1 nM, 3.8 nM, 13 nM, 44 nM, 0.15 μM, 0.51 μM, 1.7 μM, 5.9 μM and 20 μM) were analysed as duplicates on the same microtitre plate. For this purpose, 100-fold concentrated solutions in DMSO were prepared by serial dilutions (1:3.4) of a 2 mM stock solution into a clear, 384-well microtitre plate (Greiner Bio-One, Frickenhausen, Germany). From this, 50 nl were transferred into a black test plate (Greiner Bio-One, Frickenhausen, Germany). The test was started by the addition of 2 μl of a 2.5-fold concentrated BRD4(2) solution (final concentration typically 100 nM in the 5 μl of reaction volume) in aqueous assay buffer [50 mM HEPES pH 7.5, 50 mM sodium chloride (NaCl); 50 mM potassium fluoride (KF); 0.25 mM CHAPS and 0.05% serum albumin (BSA)] to the substances in the test plate. This was followed by a 10-minute incubation step at 22° C. for the pre-equilibration of putative complexes between BRD4(2) and the substances.
The mixture was then incubated in the dark at 22° C. for one hour and then at 4° C. for at least 3 hours and for no longer than overnight. The formation of BRD4(2)/Ac-H4 complexes was determined by the measurement of the resonance energy transfer from the streptavidin-Eu chelate to the anti-6His-XL665 antibody present in the reaction. For this purpose, the fluorescence emission was measured at 620 nm and 665 nm after excitation at 330-350 nm in a TR-FRET measuring instrument, for example a Rubystar or Pherastar (both from BMG Lab Technologies, Offenburg, Germany) or a Viewlux (Perkin-Elmer). The ratio of the emissions at 665 nm and at 622 nm was taken as an indicator of the amount of BRD4(2)/Ac-H4 complexes formed.
The data (ratios) obtained were normalized, with 0% inhibition corresponding to the mean from the measurements for a set of controls (typically 32 data points) in which all the reagents were present. In these, in place of test substances, 50 nl of DMSO (100%) were used. Inhibition of 100% corresponded to the mean from the measurements for a set of controls (typically 32 data points) in which all the reagents except BRD4(2) were present. The IC50 was determined by regression analysis based on a 4-parameter equation (minimum, maximum, IC50, Hill; Y=Max+(Min−Max)/(1+(X/IC50)Hill)).

MOLP-8 cells = assay: Cell proliferation assay MOLP-8 (alamarBlue); format: cell-based; settings: Homo sapiens, multiple myeloma cells, 120 hours
Experimental: In accordance with the invention, the ability of the substances to inhibit cell proliferation was determined. Cell viability was determined by means of the alamarBlue® reagent (Invitrogen) in a Victor X3 Multilabel Reader (Perkin Elmer). The excitation wavelength was 530 nm and the emission wavelength […].
The MOLP-8 cells (DSMZ, ACC 569) were seeded at a concentration of 4000 cells/well in 100 μl of growth medium (RPMI1640, 20% FCS) on 96-well microtitre plates.
After overnight incubation at 37° C., the fluorescence values (CI values) were determined. Then the plates were treated with various substance dilutions (1E-5 M, 3E-6 M, 1E-6 M, 3E-7 M, 1E-7 M, 3E-8 M, 1E-8 M) and incubated at 37° C. over 96 hours (MOLM-13, B16F10, CHL-1 cells) or 120 hours (MOLP-8 cells). Subsequently, the fluorescence values were determined (CO values). For the data analysis, the CI values were subtracted from the CO values and the results were compared between cells which had been treated with various dilutions of the substance or only with buffer solution. The IC50 values (substance concentration needed for 50% inhibition of cell proliferation) were calculated therefrom.
The substances were tested in the cell lines in Table 2, which represent the indications specified by way of example: […]

SMILES | IC50 [1] [nM] | IC50 (MOLP-8 cells) [nM]
CC1C(=O)N(C)c2ccc(Nc3cccc(S(C)(=O)=O)c3)nc2N1c1ccccc1 (stereo not shown) [Example 17, 1,3-Dimethyl-6-{[3-(methylsulphonyl)phenyl]amino}-4-phenyl-3,4-dihydropyrido[2,3-b]pyrazin-2(1H)-one] | 212 | 1060
COc1ccc(S(=O)(=O)C(C)C)cc1Nc1ccc2c(n1)N(C1CCOCC1)[C@H](C)C(=O)N2C [Example 9, (3R)-6-{[5-(Isopropylsulphonyl)-2-methoxyphenyl]amino}-1,3-dimethyl-4-(tetrahydro-2H-pyran-4-yl)-3,4-dihydropyrido[2,3-b]pyrazin-2(1H)-one] | 53 | 38
Cc1ccc(S(C)(=O)=O)cc1Nc1ccc2c(n1)N(C1CCOCC1)[C@H](C)C(=O)N2C [Example 2, (3R)-1,3-Dimethyl-6-{[2-methyl-5-(methylsulphonyl)phenyl]amino}-4-(tetrahydro-2H-pyran-4-yl)-3,4-dihydropyrido[2,3-b]pyrazin-2(1H)-one] | 173 | 236
COc1ccc(S(=O)(=O)C(C)C)cc1Nc1ccc2c(n1)N(C(C)C)[C@H](C)C(=O)N2C [Example 16, (3R)-4-Isopropyl-6-{[5-(isopropylsulphonyl)-2-methoxyphenyl]amino}-1,3-dimethyl-3,4-dihydropyrido[2,3-b]pyrazin-2(1H)-one] | 33 | 135
C[C@@H]1C(=O)N(C)c2ccc(Nc3ccc4c(c3)S(=O)(=O)CC4)nc2N1C1CCOCC1 [Example 4, (3R)-6-[(1,1-Dioxido-2,3-dihydro-1-benzothiophen-6-yl)amino]-1,3-dimethyl-4-(tetrahydro-2H-pyran-4-yl)-3,4-dihydropyrido[2,3-b]pyrazin-2(1H)-one] | 64 | 221
C[C@@H]1C(=O)N(C)c2ccc(Nc3cccc(C(F)(F)F)c3)nc2N1C1CCOCC1 [Example 43, (3R)-1,3-Dimethyl-4-(tetrahydro-2H-pyran-4-yl)-6-{[3-(trifluoromethyl)phenyl]amino}-3,4-dihydropyrido[2,3-b]pyrazin-2(1H)-one] | 234 | 911
COc1ccc(S(C)(=O)=O)cc1Nc1ccc2c(n1)N(C1CCOCC1)[C@H](C)C(=O)N2C [Example 3, (3R)-6-{[2-Methoxy-5-(methylsulphonyl)phenyl]amino}-1,3-dimethyl-4-(tetrahydro-2H-pyran-4-yl)-3,4-dihydropyrido[2,3-b]pyrazin-2(1H)-one] | 58 | 103
C[C@@H]1C(=O)N(C)c2ccc(Nc3cccc(S(=O)(=O)C4CC4)c3)nc2N1C1CCOCC1 [Example 6, (3R)-6-{[3-(Cyclopropylsulphonyl)phenyl]amino}-1,3-dimethyl-4-(tetrahydro-2H-pyran-4-yl)-3,4-dihydropyrido[2,3-b]pyrazin-2(1H)-one] | 40 | 67
C[C@@H]1C(=O)N(C)c2ccc(Nc3cccc(S(C)(=O)=O)c3)nc2N1C1CCN(C)CC1 [Example 11, (3R)-1,3-Dimethyl-4-(1-methylpiperidin-4-yl)-6-{[3-(methylsulphonyl)phenyl]amino}-3,4-dihydropyrido[2,3-b]pyrazin-2(1H)-one] | 75 | 167
COc1ccc(S(=O)(=O)C(C)C)cc1Nc1ccc2c(n1)N(C1CCN(C)CC1)[C@H](C)C(=O)N2C [Example 13, (3R)-6-{[5-(Isopropylsulphonyl)-2-methoxyphenyl]amino}-1,3-dimethyl-4-(1-methylpiperidin-4-yl)-3,4-dihydropyrido[2,3-b]pyrazin-2(1H)-one] | 62 | 15
COc1ccc(S(=O)(=O)C2CC2)cc1Nc1ccc2c(n1)N(C1CCOCC1)[C@H](C)C(=O)N2C [Example 8, (3R)-6-{[5-(Cyclopropylsulphonyl)-2-methoxyphenyl]amino}-1,3-dimethyl-4-(tetrahydro-2H-pyran-4-yl)-3,4-dihydropyrido[2,3-b]pyrazin-2(1H)-one] | 49 | 23
C[C@@H]1C(=O)N(C)c2ccc(Nc3cccc(S(C)(=O)=O)c3)nc2N1C1CCCCCC1 [Example 5, (3R)-4-Cycloheptyl-1,3-dimethyl-6-{[3-(methylsulphonyl)phenyl]amino}-3,4-dihydropyrido[2,3-b]pyrazin-2(1H)-one] | 96 | 560
CCOC(=O)N=S(C)(=O)c1cccc(Nc2ccc3c(n2)N(C2CCOCC2)[C@H](C)C(=O)N3C)c1 (mixture of isomers) [Example 10, Ethyl [(3-{[(3R)-1,3-dimethyl-2-oxo-4-(tetrahydro-2H-pyran-4-yl)-1,2,3,4-tetrahydropyrido[2,3-b]pyrazin-6-yl]amino}phenyl)(methyl)oxido-λ^6-sulphanylidene]carbamate] | 6120 | 281
COc1ccc(S(C)(=O)=O)cc1Nc1ccc2c(n1)N(C(C)C)[C@H](C)C(=O)N2C [Example 14, (3R)-4-Isopropyl-6-{[2-methoxy-5-(methylsulphonyl)phenyl]amino}-1,3-dimethyl-3,4-dihydropyrido[2,3-b]pyrazin-2(1H)-one] | 76 | 174
